In one test the target is P. aeruginosa LpxC (Pseudomonas aeruginosa (strain ATCC 15692 / DSM 22644 / CIP 104116 / JCM 14847 / LMG 12228 / 1C / PRS 101 / PAO1), UniProt P47205). Put plainly: P. aeruginosa LpxC Inhibition Assay. The format is biochemical. To be noted: 2 μM substrate, LC-MS/MS. Summed up: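 Compounds pre-incubated 30 min at room temperature with 1 nM LpxC, then 2 μM UDP-3-O-(R-3-hydroxydecanoyl)-GlcNAc added; 20 min reaction in 50 mM sodium phosphate pH 7.5, 0.005% Triton X-100, quenched with HOAc. Product quantified by LC-MS/MS against calibration curve; IC50 from four-parameter logistic fit.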

The next test has as its system P. aeruginosa PAO1. Put plainly: Susceptibility Testing (MIC, broth microdilution). To be noted: Pseudomonas aeruginosa, PAO1, 20 h, P. aeruginosa PAO1, broth microdilution, 20 hours; read-out: PAO1 MIC. Format: cell-based, Pseudomonas aeruginosa. The essentials:
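Broth microdilution per CLSI in cation-adjusted Mueller-Hinton broth, inoculum ~5×10^5 CFU/mL, two-fold compound dilutions (1% DMSO final). Plates incubated 20 h in ambient air at 35° C. MIC is the lowest concentration preventing visible growth, confirmed by OD 600 nm reading.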

Where [1] appears, read: 1 nM P. aeruginosa LpxC, read-out: PA LpxC IC50.

From US9718792B2, “Isoxazoline hydroxamic acid derivatives as LpxC inhibitors” (priority 2014, dated 2017) come the findings set out here.

≈ marks a conversion by molar mass, not a printed value. Like-named read-outs stand apart in the source and are kept apart here. Where only a bound is given, the exact number is not on record here.

Regarding `Cc1ccc(-c2ccc(C3=NO[C@@H](C[C@](C)(C(=O)NO)S(C)(=O)=O)C3)cc2)cn1` [Compound 67, (R)—N-hydroxy-2-methyl-3-((R)-3-(4-(6-methylpyridin-3-yl)phenyl)-4,5-dihydroisoxazol-5-yl)-2-(methylsulfonyl) propanamide], on P. aeruginosa LpxC (setting [1]), the IC50 is below 0.5 nM. In the test with P. aeruginosa PAO1, the MIC worked out at 0.35 µg/mL (≈ 0.838 µM).

`Cn1cc(-c2ccc(C3=NO[C@@H](C[C@](C)(C(=O)NO)S(C)(=O)=O)C3)cc2)ccc1=O` [Compound 68, (R)—N-hydroxy-2-methyl-3-((R)-3-(4-(1-methyl-6-oxo-1,6-dihydropyridin-3-yl)phenyl)-4,5-dihydroisoxazol-5-yl)-2-(methylsulfonyl)propanamide] returned an IC50 at P. aeruginosa LpxC (PA LpxC IC50, 1 nM P. aeruginosa LpxC) of 2 nM. Moreover, the minimal inhibitory concentration (MIC) in the test with P. aeruginosa PAO1 stood at 16 µg/mL (≈ 36.9 µM).

Regarding `CC(C)(C#N)c1ccc(-c2ccc(C3=NO[C@@H](C[C@](C)(C(=O)NO)S(C)(=O)=O)C3)cc2)cc1` [Compound 69, (R)-3-((R)-3-(4′-(2-cyanopropan-2-yl)-[1,1′-biphenyl]-4-yl)-4,5-dihydroisoxazol-5-yl)-N-hydroxy-2-methyl-2-(methylsulfonyl)propanamide], the IC50 at P. aeruginosa LpxC (setting [1]) was below 0.5 nM. In the test on P. aeruginosa PAO1, the MIC was 0.71 µg/mL (≈ 1.51 µM).

`C[C@@](C[C@H]1CC(c2ccc(-c3ccnc(C(F)(F)F)c3)cc2)=NO1)(C(=O)NO)S(C)(=O)=O` [Compound 70, (R)—N-hydroxy-2-methyl-2-(methylsulfonyl)-3-((R)-3-(4-(2-(trifluoromethyl)pyridin-4-yl)phenyl)-4,5-dihydroisoxazol-5-yl)]: the IC50 at P. aeruginosa LpxC (setting [1]) was 2 nM. In addition, in the test with P. aeruginosa PAO1, the minimum inhibitory concentration (MIC) is 8 µg/mL (≈ 17 µM).

As to `CCc1cc(-c2ccc(C3=NO[C@@H](C[C@](C)(C(=O)NO)S(C)(=O)=O)C3)cc2)ccn1` [Compound 71, (R)-3-((R)-3-(4-(2-ethylpyridin-4-yl)phenyl)-4,5-dihydroisoxazol-5-yl)-N-hydroxy-2-methyl-2-(methylsulfonyl)propanamide], on P. aeruginosa LpxC (setting [1]), the concentration for half-maximal inhibition (IC50) was found to be 6 nM. Moreover, the minimum inhibitory concentration (MIC) with P. aeruginosa PAO1 was 0.71 µg/mL (≈ 1.65 µM).

Regarding `C[S+]([O-])c1ccc(-c2ccc(C3=NO[C@@H](C[C@](C)(C(=O)NO)S(C)(=O)=O)C3)cc2)cc1` (stereo partly drawn) [Compound 74, (2R)—N-hydroxy-2-methyl-3-((5R)-3-(4′-(methylsulfinyl)-[1,1′-biphenyl]-4-yl)-4,5-dihydroisoxazol-5-yl)-2-(methylsulfonyl) propanamide], the IC50 at P. aeruginosa LpxC (setting [1]) was below 0.5 nM. The MIC in the test with P. aeruginosa PAO1 came to 0.71 µg/mL (≈ 1.53 µM).

For `COC(CO)c1ccc(-c2ccc(C3=NO[C@@H](C[C@](C)(C(=O)NO)S(C)(=O)=O)C3)cc2)cc1` (stereo partly drawn) [Compound 75, (2R)—N-hydroxy-3-((5R)-3-(4′-(2-hydroxy-1-methoxyethyl)-[1,1′-biphenyl]-4-yl)-4,5-dihydroisoxazol-5-yl)-2-methyl-2-(methylsulfonyl)propanamidepropanamide], the IC50 on P. aeruginosa LpxC (setting [1]) was below 0.5 nM. In addition, the MIC with P. aeruginosa PAO1 was determined as 0.5 µg/mL (≈ 1.05 µM).

In the case of `C[C@@](C[C@H]1CC(c2ccc(-c3ccc(S(C)(=N)=O)cc3)cc2)=NO1)(C(=O)NO)S(C)(=O)=O` (stereo partly drawn) [Compound 76, (2R)—N-hydroxy-2-methyl-3-((5R)-3-(4′-(S-methylsulfonimidoyl)-[1,1′-biphenyl]-4-yl)-4,5-dihydroisoxazol-5-yl)-2-(methylsulfonyl)propanamide], on P. aeruginosa LpxC (setting [1]), the IC50 is below 0.5 nM. The minimum inhibitory concentration (MIC) in the test on P. aeruginosa PAO1 is 2 µg/mL (≈ 4.17 µM).

In the case of `C[C@@](C[C@H]1CC(c2ccc(-c3ccc(-n4nccn4)cc3)cc2)=NO1)(C(=O)NO)S(C)(=O)=O` [Compound 77, (R)-3-((R)-3-(4′-(2H-1,2,3-triazol-2-yl)-[1,1′-biphenyl]-4-yl)-4,5-dihydroisoxazol-5-yl)-N-hydroxy-2-methyl-2-(methylsulfonyl)propanamide], the IC50 on P. aeruginosa LpxC (setting [1]) is below 0.5 nM. For the same compound, the minimal inhibitory concentration (MIC) in the test on P. aeruginosa PAO1 was found to be 2 µg/mL (≈ 4.26 µM).

For `C[C@@](C[C@H]1CC(c2ccc(-c3ccncc3)cc2)=NO1)(C(=O)NO)S(C)(=O)=O` [Compound 78, (R)-3-((R)-3-(4-(pyridin-4-yl)phenyl)-4,5-dihydroisoxazol-5-yl)-N-hydroxy-2-methyl-2-(methylsulfonyl)propanamide], the IC50 at P. aeruginosa LpxC (setting [1]) is below 0.5 nM. Further, in the test on P. aeruginosa PAO1, the MIC was 1 µg/mL (≈ 2.48 µM).

On to `COc1cc(F)c(-c2ccc(C3=NO[C@@H](C[C@](C)(C(=O)NO)S(C)(=O)=O)C3)cc2)c(F)c1` [Compound 79, (R)-3-((R)-3-(2′,6′-difluoro-4′-methoxy-[1,1′-biphenyl]-4-yl)-4,5-dihydroisoxazol-5-yl)-N-hydroxy-2-methyl-2-(methylsulfonyl)propanamide], for which the concentration for half-maximal inhibition (IC50) at P. aeruginosa LpxC (setting [1]) was below 0.5 nM. In addition, the MIC in the test with P. aeruginosa PAO1 is 0.35 µg/mL (≈ 0.747 µM).

Regarding `CC(C)(O)c1cc(-c2ccc(C3=NO[C@@H](C[C@](C)(C(=O)NO)S(C)(=O)=O)C3)cc2)ccn1` [Compound 81, (R)—N-hydroxy-3-((R)-3-(4-(2-(2-hydroxypropan-2-yl)pyridin-4-yl)phenyl)-4,5-dihydroisoxazol-5-yl)-2-methyl-2-(methylsulfonyl)propanamide], the IC50 at P. aeruginosa LpxC (setting [1]) is 2 nM. Besides, the MIC with P. aeruginosa PAO1 worked out at 16 µg/mL (≈ 34.7 µM).

As for `C[C@@](C[C@H]1CC(c2ccc(-c3ccncc3Cl)cc2)=NO1)(C(=O)NO)S(C)(=O)=O` [Compound 82, (R)-3-((R)-3-(4-(3-chloropyridin-4-yl)phenyl)-4,5-dihydroisoxazol-5-yl)-N-hydroxy-2-methyl-2-(methylsulfonyl)propanamide], on P. aeruginosa LpxC (setting [1]), the IC50 is below 0.5 nM. Moreover, in the test on P. aeruginosa PAO1, the MIC was determined as 0.35 µg/mL (≈ 0.799 µM).

With `C[C@@](C[C@H]1CC(c2ccc(-c3cnccc3F)cc2)=NO1)(C(=O)NO)S(C)(=O)=O` [Compound 83, (R)-3-((R)-3-(4-(4-fluoropyridin-3-yl)phenyl)-4,5-dihydroisoxazol-5-yl)-N-hydroxy-2-methyl-2-(methylsulfonyl)propanamide], at P. aeruginosa LpxC (setting [1]), the IC50 is below 0.5 nM. Also, in the test with P. aeruginosa PAO1, the MIC was 1 µg/mL (≈ 2.37 µM).

With `CC(C)(O)c1ccc(-c2ccc(C3=NO[C@@H](C[C@](C)(C(=O)NO)S(C)(=O)=O)C3)cc2)cn1` [Compound 84, (R)—N-hydroxy-3-((R)-3-(4-(6-(2-hydroxypropan-2-yl)pyridin-3-yl)phenyl)-4,5-dihydroisoxazol-5-yl)-2-methyl-2-(methylsulfonyl)propanamide], the IC50 at P. aeruginosa LpxC (setting [1]) is below 0.5 nM. For the same compound, in the test with P. aeruginosa PAO1, the minimum inhibitory concentration (MIC) worked out at 1 µg/mL (≈ 2.17 µM).

Take `Cc1cnccc1-c1ccc(C2=NO[C@@H](C[C@](C)(C(=O)NO)S(C)(=O)=O)C2)cc1` [Compound 85, (R)-3-((R)-3-(4-(3-methylpyridin-4-yl)phenyl)-4,5-dihydroisoxazol-5-yl)-N-hydroxy-2-methyl-2-(methylsulfonyl)propanamide]: the IC50 at P. aeruginosa LpxC (setting [1]) was below 0.5 nM. Also, in the test with P. aeruginosa PAO1, the minimal inhibitory concentration (MIC) is 0.5 µg/mL (≈ 1.2 µM).

As for `CO[C@@H](CO)Cc1ccc(-c2ccc(C3=NO[C@@H](C[C@](C)(C(=O)NO)S(C)(=O)=O)C3)cc2)cc1` [Compound 86, (R)—N-hydroxy-3-((R)-3-(4′-((R)-3-hydroxy-2-methoxypropyl)-[1,1′-biphenyl]-4-yl)-4,5-dihydroisoxazol-5-yl)-2-methyl-2-(methylsulfonyl)propanamide], the IC50 on P. aeruginosa LpxC (setting [1]) is below 0.5 nM. Also, in the test with P. aeruginosa PAO1, the MIC came out at 0.35 µg/mL (≈ 0.713 µM).

As for `Cc1cc(CO)ccc1-c1ccc(C2=NO[C@@H](C[C@](C)(C(=O)NO)S(C)(=O)=O)C2)cc1` [Compound 87, (R)—N-hydroxy-3-((R)-3-(4′-(hydroxymethyl)-2′-methyl-[1,1′-biphenyl]-4-yl)-4,5-dihydroisoxazol-5-yl)-2-methyl-2-(methylsulfonyl)propanamide], the IC50 on P. aeruginosa LpxC (setting [1]) was below 0.5 nM. In addition, the MIC in the test with P. aeruginosa PAO1 is 0.25 µg/mL (≈ 0.56 µM).

In the case of `C[C@@H](O)Cc1cc(F)c(-c2ccc(C3=NO[C@@H](C[C@](C)(C(=O)NO)S(C)(=O)=O)C3)cc2)c(F)c1` [Compound 88, (R)-3-((R)-3-(2′,6′-difluoro-4′-((R)-2-hydroxypropyl)-[1,1′-biphenyl]-4-yl)-4,5-dihydroisoxazol-5-yl)-N-hydroxy-2-methyl-2-(methylsulfonyl) propanamide], the IC50 at P. aeruginosa LpxC (setting [1]) was below 0.5 nM. Moreover, in the test with P. aeruginosa PAO1, the minimal inhibitory concentration (MIC) is 0.25 µg/mL (≈ 0.503 µM).

For `C[C@@H](O)Cc1ccc(-c2ccc(C3=NO[C@@H](C[C@](C)(C(=O)NO)S(C)(=O)=O)C3)cc2)c(F)c1` [Compound 89, (R)-3-((R)-3-(2′-fluoro-4′-((R)-2-hydroxypropyl)-[1,1′-biphenyl]-4-yl)-4,5-dihydroisoxazol-5-yl)-N-hydroxy-2-methyl-2-(methylsulfonyl) propanamide], the IC50 at P. aeruginosa LpxC (setting [1]) was below 0.5 nM. For the same compound, the MIC with P. aeruginosa PAO1 was 0.71 µg/mL (≈ 1.48 µM).

Take `Cc1cc(C[C@@H](C)O)ccc1-c1ccc(C2=NO[C@@H](C[C@](C)(C(=O)NO)S(C)(=O)=O)C2)cc1` [Compound 90, (R)-3-((R)-3-(2′-methyl-4′-((R)-2-hydroxypropyl)-[1,1′-biphenyl]-4-yl)-4,5-dihydroisoxazol-5-yl)-N-hydroxy-2-methyl-2-(methylsulfonyl) propanamide]: the IC50 on P. aeruginosa LpxC (setting [1]) is below 0.5 nM. Also, the MIC in the test on P. aeruginosa PAO1 was found to be 0.5 µg/mL (≈ 1.05 µM).

`C[C@@](C[C@H]1CC(c2ccc(-c3ccsc3)cc2)=NO1)(C(=O)NO)S(C)(=O)=O` [Compound 91, (R)—N-hydroxy-2-methyl-2-(methylsulfonyl)-3-((R)-3-(4-(thiophen-3-yl)phenyl)-4,5-dihydroisoxazol-5-yl)propanamide]: the IC50 at P. aeruginosa LpxC (setting [1]) is below 0.5 nM. In the test on P. aeruginosa PAO1, the MIC amounted to 0.125 µg/mL (≈ 0.306 µM).

Consider `C[C@@](C[C@H]1CC(c2ccc(-c3cnsc3)cc2)=NO1)(C(=O)NO)S(C)(=O)=O` [Compound 92, (R)—N-hydroxy-3-((R)-3-(4-(isothiazol-4-yl)phenyl)-4,5-dihydroisoxazol-5-yl)-2-methyl-2-(methylsulfonyl)propanamide], for which, on P. aeruginosa LpxC (setting [1]), the IC50 was below 0.5 nM. Moreover, in the test with P. aeruginosa PAO1, the MIC turned out to be 0.35 µg/mL (≈ 0.855 µM).
